From US12194048B2, “Use of pyrrolopyridine derivatives for preventing or treating inflammatory diseases” (VORONOI CO., LTD., priority 2020, dated 2025)

Key:
[1] = system: collagen-induced arthritis mouse model; assay: Collagen-induced arthritis mouse model; assay type: in vivo, male DBA-1 mice
Procedure: In the present experiment, male DBA-1 mice aged 8 to 10 weeks were used as the animal model. After mixing Bovine Type II Collagen (CII) with the same amount of complete Freud's adjuvant, 100 μL was injected by intradermal injection into the tail of the DBA-1 mouse. After 21 days, the same CII was mixed with the same amount of incomplete Freud's adjuvant (IFA, Chondrex), then 100 μL was injected by intradermal injection into the tail. Observation of symptoms of the mouse model began at this point, and arthritis assessment was carried out every other day. […] In the case of the control group Enbrel (anti-TNF-α), 10 mg/kg was subcutaneously administered once every 2 days, then dexamethasone (0.15 mg/kg), Baricitinib (5 mg/kg), Filgotinib (50 mg/kg), and Tofacitinib (10 mg/kg) were orally administered twice a day; as for arthritis assessment, the scores assessed at the four feet of the mouse were added and divided by 4 to give a mean, based on the mean arthritic index by Rosloniec et al (Reference Literature 1: Brand D D, et al. Nat Protoc. 2007:2(5): 1269-75).
The scores and criteria for the arthritis assessment are as follows. • Score 0: No edema or erythema. • Score 1: Mild edema and erythema limited to the foot or ankle joint • Score 2: Mild edema and erythema from the ankle joint to the tarsals • Score 3: Moderate edema and erythema from the ankle joint to the metatarsals. • Score 4: Severe edema and skin flaring from the ankle to the entire leg, or stiffness in the leg
Upon termination of the experiment, the weight of the two hind legs of each mouse were measured and added, and these measurements were compared.
Vol. 30, No. I, p93-96.; Reference 3: Pine P R, et al. Clin Immunol. 124 (3): 244-57).

hERG = hERG (Homo sapiens, UniProt Q12809); assay: hERG analysis
Sequence of hERG (Q12809 whole entry): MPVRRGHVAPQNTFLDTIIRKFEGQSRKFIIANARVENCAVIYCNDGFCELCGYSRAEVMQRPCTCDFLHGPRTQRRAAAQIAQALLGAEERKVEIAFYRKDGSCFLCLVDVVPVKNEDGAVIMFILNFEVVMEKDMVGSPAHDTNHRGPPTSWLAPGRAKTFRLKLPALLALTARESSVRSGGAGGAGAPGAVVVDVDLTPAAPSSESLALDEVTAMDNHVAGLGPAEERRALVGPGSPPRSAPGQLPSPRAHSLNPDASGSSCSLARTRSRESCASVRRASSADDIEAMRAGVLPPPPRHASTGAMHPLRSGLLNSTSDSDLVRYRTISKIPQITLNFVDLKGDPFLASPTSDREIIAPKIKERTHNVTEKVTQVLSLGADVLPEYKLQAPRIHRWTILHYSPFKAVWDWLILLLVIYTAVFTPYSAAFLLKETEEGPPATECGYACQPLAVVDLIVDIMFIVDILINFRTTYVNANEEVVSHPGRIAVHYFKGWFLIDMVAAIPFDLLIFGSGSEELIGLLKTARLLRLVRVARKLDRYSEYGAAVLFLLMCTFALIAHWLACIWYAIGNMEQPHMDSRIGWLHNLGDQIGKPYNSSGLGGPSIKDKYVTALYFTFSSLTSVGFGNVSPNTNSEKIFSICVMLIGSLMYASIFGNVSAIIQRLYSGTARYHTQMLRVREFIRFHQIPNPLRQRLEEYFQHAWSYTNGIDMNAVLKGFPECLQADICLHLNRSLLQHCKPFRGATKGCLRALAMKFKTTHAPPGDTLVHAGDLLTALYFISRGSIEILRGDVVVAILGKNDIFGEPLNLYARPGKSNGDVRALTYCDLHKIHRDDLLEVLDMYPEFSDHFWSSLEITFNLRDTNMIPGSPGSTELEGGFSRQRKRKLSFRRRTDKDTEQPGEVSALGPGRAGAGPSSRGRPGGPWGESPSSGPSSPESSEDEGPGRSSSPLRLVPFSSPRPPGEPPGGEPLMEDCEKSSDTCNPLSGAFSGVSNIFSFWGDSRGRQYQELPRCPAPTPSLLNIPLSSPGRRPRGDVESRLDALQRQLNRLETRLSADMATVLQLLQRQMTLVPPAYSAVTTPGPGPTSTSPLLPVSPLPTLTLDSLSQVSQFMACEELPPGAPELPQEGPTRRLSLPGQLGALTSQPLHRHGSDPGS

[2] = system: IMQ-induced psoriasis-like skin inflammation model; assay: Topical treatment in imiquimod (IMQ)-induced psoriasis-like skin inflammation; assay type: in vivo, BALB/c mice
Procedure: Dexamethasone (0.15%), the reference compound, was applied topically at 20 μL/mouse on the right ear once daily (QD) during the same study period.
Fifteen (15) mg imiquimod (IMQ) cream (5%) (Aldara; 3M Pharmaceuticals) was topically administered once daily (QD) on the right ear one hour after treatment from Day 1 to Day 9 for 9 consecutive days, translating to a daily dose of 0.75 mg of the active compound.
Ear swelling was measured on Day 0 and thereafter 30 min before dosing on Days 2, 4, 6 and 8. On Day 10, ear swelling was measured 24 hours after the last dosing.

Caco-2 permeability = assay type: in vitro ADME; conditions: human
Text: Caco-2 permeability observes the cell membrane permeability of a drug, and can be considered an index associated with drug absorption and excretion.

[3] = system: IMQ-induced psoriasis-like skin inflammation model; assay: Oral treatment in imiquimod (IMQ)-induced psoriasis-like skin inflammation; assay type: in vivo, BALB/c mice
Procedure: The positive control, methotrexate at 2 mg/kg and tofacitinib at 5 mg/kg were administered by oral gavage twice (BID) daily during the same study period.
Fifteen (15) mg Imiquimod (IMQ) cream (5%) (Aldara; 3M Pharmaceuticals) was topically (TOP) administered once daily (QD) on the right ear one hour after treatment from Day 1 to Day 9 for 9 consecutive days, translating to a daily dose of 0.75 mg of the active compound. Ear swelling was measured on Day 0 and thereafter 30 min before dosing on Days 2, 4, 6 and 8. On Day 10, ear swelling was measured 24 hours after the last dosing.

THP-1 cells = assay: Pro-inflammatory cytokine expression in LPS-stimulated THP-1 cells; assay type: cell-based; conditions: pre-treated 1 hour, then LPS 0.5 μg/ml 24 hours; FIG. 1a
[4] = Metabolic stability (MS) evaluation; assay type: in vitro ADME
[5] = Plasma stability evaluation; assay type: in vitro ADME; conditions: LC-MS/MS
Procedure: Hydrolysis in plasma is a factor which, together with metabolic reactions, impacts fast in-vivo decomposition of a drug and short half-life thereof; plasma stability is a test which assesses these. The compound at a certain concentration was added to plasma and reacted for a certain period, then collected, and LC-MS/MS was used to measure the percentage of compound remaining relative to the amount prior to the reaction.

[6] = Metabolic stability (MS) evaluation; assay type: in vitro ADME; remark: listed apart in the source
[7] = system: DSS-induced inflammatory bowel disease mouse model; assay: DSS-induced inflammatory bowel disease mouse model; assay type: in vivo, male C57BL/6 mice; conditions: 20 mg/kg orally twice a day
Procedure: The animals used for the present experiment was male C57BL/6 mice (aged 6 to 8 weeks) weighting 20 to 24 g, purchased from Charles River Laboratories. All the mice except the normal control were made to drink 3% DSS water for 5 days to induce enteritis.
The comparative compound cyclosporine A was dissolved in 0.5% methylcellulose solvent and orally administered once a day at a prescribed concentration (20 mg/kg), and Tofacitinib was dissolved in 0.5% methylcellulose solvent and orally administered twice a day at a prescribed concentration (10 mg/kg).
Changes in body weight, occult bleeding in stool, and stool consistently were examined daily during the experiment to assess the degree of disease activity, and upon termination of the experiment (day 12), bowel tissue was collected in order to measure bowel tissue weight and length, perform histological analysis using H&E dyeing and PAS dyeing, and analyze expression of inflammatory cytokines in the bowel tissue.
To assess disease activity, changes in weight and other criteria disclosed in Table 4 below were used for scoring; scores were aggregated.

[8] = Metabolic stability (MS) evaluation; assay type: in vitro ADME; remark: listed apart in the source
[9] = Metabolic stability (MS) evaluation; assay type: in vitro ADME; remark: listed apart in the source
[10] = system: naive T cells in the mouse spleen; assay: Regulatory T cell and Th17 cell differentiation; assay type: cell-based; conditions: FIG. 2
Procedure: The experiment was conducted using Harmine as a control.

[11] = 30 mg/kg orally twice a day, H&E and T-blue, FIGS. 3c to 3e

For `CCNc1cc(Nc2ccc(C(=O)N3CCC(N4CCOCC4)CC3)cc2OC)nc2[nH]cc(C(F)(F)F)c12` [Compound 1, (4-((4-(ethylamino)-3-(trifluoromethyl)-1H-pyrrolo[2,3-b]pyridine-6-yl)amino)-3-methoxyphenyl)(4-morpholinopiperidine-1-yl)methanone], the “weight of the joint” value ([1]; 30 mg/kg orally twice a day for 2 weeks, FIG. 3b) was “reduced”, the “area of cells where collagen-induced inflammation had occurred (histology)” value [1, 11] was “reduced” and the “area of the damaged joint (histology)” value [1, 11] was “reduced”. The IC50 (hERG) was 4.39 µM, the “cardiac toxicity (hERG, in words)” value (hERG) was “excellent safety in terms of cardiac toxicity” and the IMQ-induced ear swelling ([2]; 0.3, 1% and 3% topical 20 μL/mouse QD x 9 days, Day 6 to Day 10, dose-dependent, vs no treatment and vehicle) was “moderate to significant (p<0.05) inhibition”. For the same compound, the “severity of skin lesions (histopathological examination of the ear skin)” value ([2]; 3% topical, vs no treatment group and vehicle group) was “attenuated significantly”, the “protective effects in IMQ-induced psoriasis-like inflammation (ear swelling, ear weight, histopathological result)” value ([2]; 3%, high dose, 20 μL/mouse QD×9 days topically) was “significant (p<0.05) protective effects” and the Papp (Caco-2 permeability) was 0.201 ×10⁻⁶ cm/s. The “protective effects on IMQ-induced psoriasis-like inflammation (ear swelling)” value ([3]; 45 and 60 mg/kg PO BID×9 days) was “significantly (p<0.05) protective effects”, the IMQ-induced ear swelling ([3]; 45 and 60 mg/kg oral gavage BID 9 days, Day 8 to Day 10, vs vehicle group) was “statistically (p<0.05) significant inhibition” and the “expression of IL-6” value (THP-1 cells) was “effectively inhibited”. For the same compound, the “expression of TNF-α” value (THP-1 cells) was “effectively inhibited”, the “MS (1 μM) (% remaining during 30 min) Mouse” value [4] was 40% and the “Plasma stability (% remaining, 30 min)” value ([5]; 30 min) was 100%. For the same compound, the “Plasma stability (% remaining, 120 min)” value ([5]; 120 min) was 97.2%, the “MS (1 μM) (% remaining during 30 min) Human” value [6] was 39% and the disease activity ([7]; FIG. 7) was “reduced to the level of the control administered cyclosporine A”. For the same compound, the “expression of IL-6 in bowel tissue” value ([7]; FIG. 8) was “decreased”, the “expression of IL-17A in bowel tissue” value ([7]; FIG. 8) was “decreased” and the “expression of TNR-α in bowel tissue” value ([7]; FIG. 8) was “decreased”. The “loss of goblet cells” value ([7]; histological analysis, FIG. 8) was “reduced”, the body weight reduction ([7]; vs control not treated, FIG. 7) was “less weight reduction” and the “MS (1 μM) (% remaining during 30 min) Dog” value [8] was 96%. For the same compound, the “MS (1 μM) (% remaining during 30 min) Rat” value [9] was 20%, the “differentiation of Th17 cells” value ([10]; Th17 differentiation conditions) was “decreased” and the “differentiation of regulatory T cells (Treg)” value ([10]; regulatory T cell differentiation conditions) was “increased”.
